Measured values taken from patent US20230097658A1, “TUNABLE EXTENDED RELEASE HYDROGELS” (FRED HUTCHINSON CANCER RESEARCH CENTER, priority 2020, published 2023).
Entries after “also recorded” stand apart in the source; their conditions may differ.

Key:
[1] = system: human GB line; details: CXCR4 blocked; cited from earlier work
[2] = system: PBT-05 cells; assay: In vitro phagocytosis assay, PBT-05 co-culture with murine bone marrow derived macrophages (BMDM); format: cell-based, human; details: for contribution to tumor cell cytotoxicity when added to CD47 blockade: murine macrophage co-cultures, compared with CD47 blockade alone; for effect on viability of tumor cells in co-culture: polarizing agent without CD47mAb
Excerpt: These cultures were challenged with combinations of macrophage checkpoint inhibitors (MCIs) and immune cell polarizing factors described by literature as capable of promoting an immune response against tumor cells. […] Compared to a media control, no combination of MCIs and polarizing factors caused significant cytotoxicity of PBT-05 cells cultured alone, confirming the observed cytotoxic effect is mediated by the macrophages, not the drugs themselves.
Murine monocytes were harvested and cultured from femurs of C57BL/6 mice using RPMI (Thermofisher, 11875093) containing 10% heat deactivated FBS and 100 ng/mL mCSF1 for 7 days. Mature macrophages from these cultures were later harvested for experiments. Human monocytes were isolated from human PBMCs (Bloodworks) and purified by EasySep monocyte depletion kit (StemCell, 19355). Monocytes were cultured in RPMI containing 10% heat deactivated FBS and 25 ng/mL human CSF1 for 10 days. 50 ng/mL IL-10 was added to the cultures at day 5 to induce M2 phenotypes. Mature macrophages were later harvested for use in experiments.
Monoclonal antibodies were purchased from Bioxcell (LEAF hCD47, BE0019) and Biolegend (LEAF hCD24mAb: 101810, MsIgG1: 400153). Phagocytosis assays were performed using the Basic Analyzer software on Essen Bio's Incucyte Zoom and Incucyte S3. 12 or 24 well plates were seeded 1:1 with GFP+ tumor lines and macrophages (murine/human) in fully supplemented Neuralcult plus various MCIs and immunomodulators described previously. Using the aforementioned definitions, the Incucyte calculated tumor cell counts based on the number of GFP+ nuclei in the wells over time.

[3] = system: PBT-05 cells; assay: In vitro chemotaxis assay (Incucyte transwell); format: cell-based, human; details: patient-derived pHGG line PBT-05
Excerpt: Locally delivered therapeutics in the brain may need to account for the tendency of remnant brain tumor cells to migrate away from the tumor margins—potentially out of reach locally delivered therapeutics. Here, artificial gradients of chemokines were used to lure tumor cells and phagocytic cells in the brain towards a static “trap” of macrophage-enhancing therapeutics to facilitate tumor cell elimination. Referring to FIGS. 4A-4D, to model this, a patient-derived, pediatric high grade glioma (pHGG) line, PBT-05, was used. […] In vitro chemotaxis assays were carried out with PBT-05 against a panel of classical chemokines cited in literature as potentially being potent against migratory brain tumor cells. […] Without wishing to be bound by theory, it is believed that PBT-05's attraction towards hCCL2 gradients may be mediated by another receptor promiscuous with this chemokine. While this receptor was not identified, mCCL2 may not bind to it or produce the same downstream signaling. However, its chemotactic sensitivity to human and murine CXCL12 may be mediated by the canonical pathway.
Chemokines were purchased from: Sigma-Aldrich (CCL2: SRP3109) and RnD Systems (CXCL12: 350-NS/CF). Cell migration assays were performed using the chemotaxis module on the Incucyte Zoom 2016 and S3 (Essen Bio). Specialized 96 well transwell plates and reservoir dishes were supplied by the manufacturer (cat no's 4582, 4600). H2B-GFP+ PBT05 lines cells were cultured in the Neuralcult media+supplement without EGF/FGF to reduce background mobility caused by these growth factors. The Incucyte software was tailored to identify GFP+ nuclei to count the number of tumor cells on top and bottom of the transwell membranes.

[4] = molecular target: CD47 on PBT-05 patient-derived pediatric high grade glioma cells (human) (UniProt Q08722); assay: cell-based or functional assay
UniProt Q08722, sequence (Q08722 19-323): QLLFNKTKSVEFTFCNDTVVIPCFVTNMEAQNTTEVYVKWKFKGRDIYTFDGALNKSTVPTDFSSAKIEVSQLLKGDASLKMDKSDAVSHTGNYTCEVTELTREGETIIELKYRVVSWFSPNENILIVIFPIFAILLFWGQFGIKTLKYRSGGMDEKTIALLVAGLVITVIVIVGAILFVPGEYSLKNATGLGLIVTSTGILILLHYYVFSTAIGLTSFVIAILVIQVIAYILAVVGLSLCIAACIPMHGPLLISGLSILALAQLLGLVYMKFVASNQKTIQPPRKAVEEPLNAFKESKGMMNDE

In the case of `c1cc(CN2CCCNCCNCCCNCC2)ccc1CN1CCCNCCNCCCNCC1` [AMD3100], the “chemotaxis towards gradients of CXCL12” value [1] is given as “reduced chemotaxis”.

With `CCOCc1nc2c(N)nc3ccccc3c2n1CC(C)(C)O` [R848, reference compound] the “contribution to tumor cell cytotoxicity when added to CD47 blockade” value [2] was “did not significantly contribute to tumor cell cytotoxicity; also recorded: did not significantly increase cytotoxicity” and the “effect on viability of tumor cells in co-culture” value [2] was “mild effects”.

In the case of “CCL2: classical chemokine, purchased from Sigma-Aldrich (SRP3109)”, the “chemotaxis of PBT-05 cells (chemotactic potency)” value (from here on “chemotaxis of PBT-05 cells”) [3] is reported as “induced varying degrees of chemotaxis; also recorded: varying sensitivity”.

In the case of “CXCL12: classical chemokine, ligand of CXCR4, purchased from RnD Systems (350-NS/CF)”, the “chemotaxis of PBT-05 cells” value [3] is reported as “effective at eliciting chemotaxis; also recorded: induced varying degrees of chemotaxis; also recorded: effective at eliciting migration; also recorded: effectively chemoattract; also recorded: varying sensitivity”.

“LEAF hCD47 monoclonal antibody (Bioxcell, BE0019)” showed a phagocytosis of PBT-05 cells by murine and human macrophages in co-culture (tumor cell count); antibody concentration that was effective [4] of 1 µg/mL.

With hCCL2: human CCL2 chemokine the “chemotaxis of PBT-05 cells” value [3] was “greatest potency of the chemokines tested”.

With “mCCL2: murine version of the chemokine CCL2” the “chemotaxis of PBT-05 cells” value [3] was “unresponsive”.

In the case of mCXCL12: murine CXCL12 chemokine, the “chemotaxis of PBT-05 cells” value [3] is reported as “lost some potency”.

B1: IFNg: polarizing agent (cytokine) that induces activated phenotypes in macrophages (protein, UniProt P01579 24-161, looked up)
Interferon gamma: QDPYVKEAENLKKYFNAGHSDVADNGTLFLGILKNWKEESDRKIMQSQIVSFYFKLFKNFKDDQSIQKSVETIKEDMNVKFFNSNKKKRDDFEKLTNYSVTDLNVQRKAIHELIQVMAELSPAAKTGKRKRSQMLFRG
For B1, the “contribution to tumor cell cytotoxicity when added to CD47 blockade” value [2] was “did not significantly contribute to tumor cell cytotoxicity; also recorded: did not significantly increase cytotoxicity” and the “effect on viability of tumor cells in co-culture” value [2] was “mild effects”.
